Assay results published in patent publication US20140350273A1, “PEDIATRIC USES OF CABAZITAXEL” (AVENTIS PHARMA S.A., priority 2012, published 2014).
Where two headings read alike, the source gives them in different places.

Test system: human osteosarcoma DM77
Assay type: in vivo
Settings: for Tumor Volume Data (Day 21) Median / ΔT/ΔC % / ΔT/ΔC: day 21; for MTTE / T-C: volume endpoint 1400 mm^3
Method: In the reported examples supporting this invention, vials of the clinical formulation of cabazitaxel and docetaxel were used. […] The resultant solution contains 10 mg/mL of cabazitaxel. Stock solution of cabazitaxel was then diluted in 0.9% sodium chloride.
This efficacy may be quantified, for example, as changes in tumor volume for each treated (T) and control (C) group, which are calculated for each animal and each day by subtracting the tumor volume on the day of first treatment (staging day) from the tumor volume on the specified observation day. This allows calculating the tumor growth inhibition: ΔT/ΔC=(median delta T/median delta C)×100. Individual tumor volume changes from baseline are thereafter analyzed by a non-parametric two-way ANOVA-TYPE (with factors: group and repeated days) followed by a post-hoc contrasts analysis, with Bonferroni-Holm adjustment for multiplicity, comparing all treated groups to the control group. […] A probability less than 5% (p<0.05) was considered as significant.
Based on the National Cancer Institute (NCl) standards, a ΔT/ΔC≦40% is the minimal level required to declare activity.
This efficacy may also be quantified by the number of tumor regressions observed after therapy. Individual mice reporting a tumor volume ≦50% of the Day 0 measurement for two consecutive measurements over a seven day period were considered partial responders (PR). Individual mice lacking palpable tumors (<4×4 mm^2 for two consecutive measurements over a seven day period) were classified as complete responders (CR); a CR that persisted until study completion was considered a tumor-free survivor (TFS).
Efficacy could also be determined at study completion, using tumor growth delay (T-C) in days, which is calculated using the median time to endpoint (MTTE) value for each treatment (T) group versus control (C). A Log Rank multiple comparison test with Bonferroni-Holm adjustment for multiplicity was applied on individual TTE to compare the treated groups to the control group.
The efficacy of cabazitaxel in comparison with docetaxel on pediatric patient-derived tumor xenografts was determined experimentally in the following manner:
The animals subjected to the experiment are subcutaneously grafted unilaterally with approximately 30 mg of a tumor fragment from low passage pediatric patient-derived tumor xenografts. The animals are implanted with a human patient-derived pediatric tumor xenografted in immuno-compromised mice (Harlan; nu/nu). Several days post tumor implantation, mice are randomized according to their tumor burden to the different groups of treatments and controls. The agents are dosed intravenously at 5.8, 9.3, 15 or 24.2 mg/kg every 4 days for a total of 3 doses (q4d×3) to mice bearing a tumor burden at start of therapy (day 0) ranged from 125 to 250 mm^3.
Beginning Day 0, animals were observed daily and weighed twice weekly using a digital scale; data including individual and mean gram weights (Mean We±SD), mean percent weight change versus Day 0 were recorded for each group. Animal deaths were recorded daily and designated as drug-related (D), technical (T), tumor related (B), or unknown (U) based on weight loss and gross observation; single agent or combination groups reporting a mean >20% for a period of 7 days and/or >10% mortality were considered above the maximum tolerated dose (MTD) for that treatment on the evaluated regimen.
The selected tumor model, DM77, was a low passage patient-derived tumor xenograft derived from an osteosarcoma taken from the lung of a patient. […]

Structure (SMILES): CC(=O)O[C@@]12CO[C@@H]1C[C@H](O)[C@@]1(C)C(=O)[C@H](O)C3=C(C)[C@@H](OC(=O)[C@H](O)[C@@H](NC(=O)OC(C)(C)C)c4ccccc4)C[C@@](O)([C@@H](OC(=O)c4ccccc4)[C@H]21)C3(C)C [Docetaxel, docetaxel]
- #CR (5.8 mg/kg i.v./q4dx3): 0/0/0
- #PR (5.8 mg/kg i.v./q4dx3): 0/0/0
- #TFS (5.8 mg/kg i.v./q4dx3): 0/0/0
- Drug Deaths Total (5.8 mg/kg i.v./q4dx3): 0
- Weight Change at Nadir % (5.8 mg/kg i.v./q4dx3): −6%
- Weight Change at Nadir Day (5.8 mg/kg i.v./q4dx3): 11 days
- Tumor Volume Data (Day 21) Median (5.8 mg/kg i.v./q4dx3): 300 mm^3
- ΔT/ΔC % (5.8 mg/kg i.v./q4dx3): 18.5%
- MTTE (5.8 mg/kg i.v./q4dx3): 53 days
- T-C (5.8 mg/kg i.v./q4dx3): 28 days
- ΔT/ΔC (5.8 mg/kg q4d×3 IV): 18.5%
- tumor volume changes from baseline, Median +/− nMAD (5.8 mg/kg, DAY 4): 47 +/− 47
- tumor volume changes from baseline, Median +/− nMAD (5.8 mg/kg, DAY 7): 73 +/− 23
- tumor volume changes from baseline, Median +/− nMAD (5.8 mg/kg, DAY 11): 122 +/− 56
- tumor volume changes from baseline, Median +/− nMAD (5.8 mg/kg, DAY 14): 129 +/− 63
- tumor volume changes from baseline, Median +/− nMAD (5.8 mg/kg, DAY 18): 169 +/− 116
- tumor volume changes from baseline, Median +/− nMAD (5.8 mg/kg, DAY 21): 169 +/− 103
- tumor volume changes from baseline, Median +/− nMAD (5.8 mg/kg, DAY 25): 217 +/− 151
- tumor volume changes from baseline, Median +/− nMAD (5.8 mg/kg, DAY 28): 290 +/− 198
- tumor volume changes from baseline, Median +/− nMAD (5.8 mg/kg, DAY 32): 332 +/− 266
- tumor volume changes from baseline, Median +/− nMAD (5.8 mg/kg, DAY 35): 342 +/− 250
- tumor volume changes from baseline, Median +/− nMAD (5.8 mg/kg, DAY 39): 342 +/− 121
- tumor volume changes from baseline, Median +/− nMAD (5.8 mg/kg, DAY 42): 401 +/− 169.5
- tumor volume changes from baseline, Median +/− nMAD (5.8 mg/kg, DAY 46): 546 +/− 185.5
- tumor volume changes from baseline, Median +/− nMAD (5.8 mg/kg, DAY 49): 512 +/− 142
- tumor volume changes from baseline, Median +/− nMAD (5.8 mg/kg, DAY 53): 657.5
- tumor volume changes from baseline, Median +/− nMAD (5.8 mg/kg, DAY 56): 875.5
- #CR (9.3 mg/kg i.v./q4dx3): 0/0/0
- #PR (9.3 mg/kg i.v./q4dx3): 0/0/0
- #TFS (9.3 mg/kg i.v./q4dx3): 0/0/0
- Drug Deaths Total (9.3 mg/kg i.v./q4dx3): 0
- Weight Change at Nadir % (9.3 mg/kg i.v./q4dx3): −7%
- Weight Change at Nadir Day (9.3 mg/kg i.v./q4dx3): 14 days
- Tumor Volume Data (Day 21) Median (9.3 mg/kg i.v./q4dx3): 266 mm^3
- ΔT/ΔC % (9.3 mg/kg i.v./q4dx3): 9.6%
- MTTE (9.3 mg/kg i.v./q4dx3): >60 days
- T-C (9.3 mg/kg i.v./q4dx3): >35 days
- numbers of PR (9.3 mg/kg q4d×3 IV): 0/9
- ΔT/ΔC (9.3 mg/kg q4d×3 IV): 9.6%
- tumor volume changes from baseline, Median +/− nMAD (9.3 mg/kg, DAY 4): 87 +/− 40
- tumor volume changes from baseline, Median +/− nMAD (9.3 mg/kg, DAY 7): 87 +/− 42
- tumor volume changes from baseline, Median +/− nMAD (9.3 mg/kg, DAY 11): 96 +/− 77
- tumor volume changes from baseline, Median +/− nMAD (9.3 mg/kg, DAY 14): 96 +/− 69
- tumor volume changes from baseline, Median +/− nMAD (9.3 mg/kg, DAY 18): 96 +/− 69
- tumor volume changes from baseline, Median +/− nMAD (9.3 mg/kg, DAY 21): 88 +/− 74
- tumor volume changes from baseline, Median +/− nMAD (9.3 mg/kg, DAY 25): 124 +/− 93
- tumor volume changes from baseline, Median +/− nMAD (9.3 mg/kg, DAY 28): 124 +/− 171
- tumor volume changes from baseline, Median +/− nMAD (9.3 mg/kg, DAY 32): 154 +/− 201
- tumor volume changes from baseline, Median +/− nMAD (9.3 mg/kg, DAY 35): 169 +/− 235
- tumor volume changes from baseline, Median +/− nMAD (9.3 mg/kg, DAY 39): 202 +/− 268
- tumor volume changes from baseline, Median +/− nMAD (9.3 mg/kg, DAY 42): 309 +/− 375
- tumor volume changes from baseline, Median +/− nMAD (9.3 mg/kg, DAY 46): 309 +/− 375
- tumor volume changes from baseline, Median +/− nMAD (9.3 mg/kg, DAY 49): 424.5
- tumor volume changes from baseline, Median +/− nMAD (9.3 mg/kg, DAY 53): 542 +/− 447.5
- tumor volume changes from baseline, Median +/− nMAD (9.3 mg/kg, DAY 56): 493 +/− 238
- #CR (15 mg/kg i.v./q4dx3): 0
- #PR (15 mg/kg i.v./q4dx3): 3
- #TFS (15 mg/kg i.v./q4dx3): 0
- Drug Deaths Total (15 mg/kg i.v./q4dx3): 0
- Weight Change at Nadir % (15 mg/kg i.v./q4dx3): −14%
- Weight Change at Nadir Day (15 mg/kg i.v./q4dx3): 11 days
- Tumor Volume Data (Day 21) Median (15 mg/kg i.v./q4dx3): 78 mm^3
- ΔT/ΔC % (15 mg/kg i.v./q4dx3): −5.9%
- MTTE (15 mg/kg i.v./q4dx3): >60 days
- T-C (15 mg/kg i.v./q4dx3): >35 days
- tumor volume changes from baseline, Median +/− nMAD (15 mg/kg, DAY 4): 66 +/− 66
- tumor volume changes from baseline, Median +/− nMAD (15 mg/kg, DAY 7): 73 +/− 73
- tumor volume changes from baseline, Median +/− nMAD (15 mg/kg, DAY 11): −41 +/− 41
- tumor volume changes from baseline, Median +/− nMAD (15 mg/kg, DAY 14): −41 +/− 41
- tumor volume changes from baseline, Median +/− nMAD (15 mg/kg, DAY 18): −53 +/− 17
- tumor volume changes from baseline, Median +/− nMAD (15 mg/kg, DAY 21): −54 +/− 12
- tumor volume changes from baseline, Median +/− nMAD (15 mg/kg, DAY 25): −66 +/− 17
- tumor volume changes from baseline, Median +/− nMAD (15 mg/kg, DAY 28): −66 +/− 17
- tumor volume changes from baseline, Median +/− nMAD (15 mg/kg, DAY 32): −66 +/− 17
- tumor volume changes from baseline, Median +/− nMAD (15 mg/kg, DAY 35): −66 +/− 13
- tumor volume changes from baseline, Median +/− nMAD (15 mg/kg, DAY 39): −66 +/− 13
- tumor volume changes from baseline, Median +/− nMAD (15 mg/kg, DAY 42): −66 +/− 13
- tumor volume changes from baseline, Median +/− nMAD (15 mg/kg, DAY 46): −58 +/− 11
- tumor volume changes from baseline, Median +/− nMAD (15 mg/kg, DAY 49): −58 +/− 11
- tumor volume changes from baseline, Median +/− nMAD (15 mg/kg, DAY 53): −58 +/− 11
- tumor volume changes from baseline, Median +/− nMAD (15 mg/kg, DAY 56): −58 +/− 11
- #CR (24.2 mg/kg i.v./q4dx3): 1
- #PR (24.2 mg/kg i.v./q4dx3): 6
- #TFS (24.2 mg/kg i.v./q4dx3): 1
- Drug Deaths Total (24.2 mg/kg i.v./q4dx3): 0
- Weight Change at Nadir % (24.2 mg/kg i.v./q4dx3): −17%
- Weight Change at Nadir Day (24.2 mg/kg i.v./q4dx3): 14 days
- Tumor Volume Data (Day 21) Median (24.2 mg/kg i.v./q4dx3): 71.5 mm^3
- ΔT/ΔC % (24.2 mg/kg i.v./q4dx3): −6.1%
- MTTE (24.2 mg/kg i.v./q4dx3): >60 days
- T-C (24.2 mg/kg i.v./q4dx3): >35 days
- tumor volume changes from baseline, Median +/− nMAD (24.2 mg/kg, DAY 4): 0 +/− 0
- tumor volume changes from baseline, Median +/− nMAD (24.2 mg/kg, DAY 7): 0 +/− 0
- tumor volume changes from baseline, Median +/− nMAD (24.2 mg/kg, DAY 11): −50 +/− 24
- tumor volume changes from baseline, Median +/− nMAD (24.2 mg/kg, DAY 14): −55.5 +/− 20
- tumor volume changes from baseline, Median +/− nMAD (24.2 mg/kg, DAY 18): −55.5 +/− 20
- tumor volume changes from baseline, Median +/− nMAD (24.2 mg/kg, DAY 21): −55.5 +/− 10.5
- tumor volume changes from baseline, Median +/− nMAD (24.2 mg/kg, DAY 25): −55.5 +/− 10.5
- tumor volume changes from baseline, Median +/− nMAD (24.2 mg/kg, DAY 28): −53.5 +/− 13
- tumor volume changes from baseline, Median +/− nMAD (24.2 mg/kg, DAY 32): −53.5 +/− 33
- tumor volume changes from baseline, Median +/− nMAD (24.2 mg/kg, DAY 35): −57.5 +/− 45.5
- tumor volume changes from baseline, Median +/− nMAD (24.2 mg/kg, DAY 39): −57.5
- tumor volume changes from baseline, Median +/− nMAD (24.2 mg/kg, DAY 42): −57.5
- tumor volume changes from baseline, Median +/− nMAD (24.2 mg/kg, DAY 46): −57.5
- tumor volume changes from baseline, Median +/− nMAD (24.2 mg/kg, DAY 49): −48 +/− 45.5
- tumor volume changes from baseline, Median +/− nMAD (24.2 mg/kg, DAY 53): −48 +/− 69.5
- tumor volume changes from baseline, Median +/− nMAD (24.2 mg/kg, DAY 56): −48 +/− 69.5
